Assay results taken from publication PMC4363317, “A Highly Efficient Recombinant Laccase from the Yeast Yarrowia lipolytica and Its Application in the Hydrolysis of Biomass” (PLoS ONE, 2015).

Target: T1, YlLac (Yarrowia lipolytica, UniProt G1C1M2)
T1 construct: ORF 519 residues incl; 19-residue native signal (abstract instead calls the mature protein 519 aa); expressed without native signal behind alpha-factor signal (pPICZalphaA-Wsp-YlLac) in Pichia pastoris KM71H; forward primer GCCATTGGCCCGGTGACC encodes AIGPVT; monomer, glycosylated ~67-68 kDa, ~55 kDa after endoH
T1 sequence (G1C1M2 20-519): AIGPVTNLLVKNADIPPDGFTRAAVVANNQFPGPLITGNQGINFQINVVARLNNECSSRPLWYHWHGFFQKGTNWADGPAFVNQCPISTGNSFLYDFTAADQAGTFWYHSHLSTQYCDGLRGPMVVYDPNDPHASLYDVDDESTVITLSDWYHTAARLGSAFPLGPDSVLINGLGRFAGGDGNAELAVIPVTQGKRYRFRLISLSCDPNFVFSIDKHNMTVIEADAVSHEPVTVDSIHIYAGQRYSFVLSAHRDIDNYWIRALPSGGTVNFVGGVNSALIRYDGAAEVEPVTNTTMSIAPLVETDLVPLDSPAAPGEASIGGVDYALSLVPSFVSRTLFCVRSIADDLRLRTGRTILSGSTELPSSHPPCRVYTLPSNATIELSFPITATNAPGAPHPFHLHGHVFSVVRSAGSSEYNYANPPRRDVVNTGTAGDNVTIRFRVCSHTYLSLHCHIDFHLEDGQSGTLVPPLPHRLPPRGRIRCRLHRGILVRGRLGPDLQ
Assay: biochemical
Design: spectrophotometric ABTS oxidation by purified recombinant YlLac with inhibitor, 50 mM sodium acetate pH 4.8
Conditions: 0.1 mM ABTS, pH 4.8, read-out: % of control remaining; for remaining activity at 100 µM: 0.1 mM; for remaining activity at 500 µM: 0.5 mM; for remaining activity at 1000 µM: 1 mM
Protocol: Sodium dodecyl sulfate polyacrylamide gel electrophoresis (SDS-PAGE; 12% w/v polyacrylamide) was performed as described by Laemmli. The native molecular mass was determined by applying samples to a calibrated Sephacryl S-300 HR 16/60 column as recommended by the supplier (GE Healthcare). Purified recombinant YlLac was treated with endoglycosidase H (NEB, Biolabs UK) according to the manufacturer's protocol. YlLac (6 μg) in 1× glycoprotein denaturing buffer was boiled for 10 min. After cooling, 1 μl of endoglycosidase H was added and the sample was incubated at 37°C overnight. The product of endoglycosidase H treatment was analyzed by SDS-PAGE. Protein bands were stained with Coomassie brilliant blue R-250 (Sigma). The zymogram process was carried out using native PAGE, and the enzyme band was visualized by incubating the gel in 50 mM sodium acetate buffer (pH 4.8) containing 0.1 mM ABTS and 2,6-DMP at room temperature. The UV-vis absorption spectrum of purified laccase was recorded at 25°C on a spectrophotometer (Shimadzu, model UV-1800, Tokyo) in 2 cm path length quartz cells. The effects of pH on laccase activity for various substrates were tested at pH 2–6 in 50 mM citrate-phosphate buffer (pH 2–4) or 50 mM sodium-acetate buffer (pH 4–6). The activity of purified laccase towards the ABTS substrate was examined at 20–80°C at the optimal pH value. The rates of substrate oxidation were determined by measuring the absorbance increases at the respective wavelengths, and the molar extinction coefficients (ε) were obtained from the literature. The effects of various inhibitors and metal ions on the activity of purified laccase were determined using assay mixtures (2 ml) containing appropriately diluted enzyme, 50 mM sodium acetate buffer (pH 4.8), and 0.1 mM ABTS with various concentrations of inhibitors or 5 mM metal ions. Laccase activity in the absence of inhibitor or metal ions was defined as 100%. Measurements were carried out in triplicate. K m and V max values of purified YlLac were determined by measuring the activity of the enzyme with various concentrations (0.01–0.1 mM) of ABTS and 2,6-DMP substrates at the optimal condition in each case. Ki A number of compounds were examined for their effects on YlLac activity, including small ions [compound left out], sulfhydryl group-containing redox reagents (L-cysteine and dithiothreitol, […]), denaturants (thiourea), and a chelator (EDTA) (S2 Table). […] Enzyme activity was not observed in the presence of 0.1 mM NaN3. SDS caused partial inhibition and the metal chelating agent EDTA caused no inhibition. Metal ions such as Cr^3+, Mg^2+, and Mn^2+ inhibited 25%, 24%, and 24% of YlLac activity, respectively.

Compound | remaining activity at 100 µM | remaining activity at 500 µM | remaining activity at 1000 µM
NC(N)=S [Thiourea] | 91.1 ± 2.1% | 42.2 ± 2% | 12.3 ± 1.5%
O[C@@H](CS)[C@@H](O)CS (racemic) [Dithiothreitol] | 61.1 ± 2.4% | 2 ± 0.4% | 0%
N[C@@H](CS)C(=O)O [l-Cysteine] | 76.6 ± 2.1% | 11.1 ± 1.5% | 0%
